# According to ChEMBL document CHEMBL5625204, “Synthesis and pharmacodynamic evaluation of naphthalene derivatives against influenza A virus in vitro and in vivo” (Eur J Med Chem, 2023):
# Calls of active or inactive are those of the source. No cut-off for these calls is given here.
# Assays:
# Influenza A virus [1] = experiment: Antiviral activity against Influenza A virus H1N1 infected in dog MDCK cells assessed as decrease in apoptosis by measuring proportion of late apoptotic cells at 25 uM measured after 72 hrs by AnnexinV-FITC/PI staining based flow cytometry (reference value: 10.3%); assay type: functional; design: scale not given: the % may be the effect or the level left
# Influenza A virus [2] = experiment: Antiviral activity against Influenza A virus H1N1 infected in human A549 cells assessed as decrease in cytokine gene expression by measuring decrease in IL-8 gene expression at 25 to 50 uM measured after 24 hrs by qRT-PCR analysis; assay type: functional, organism-based; conditions: dose 25-50 µM
# Influenza A virus [3] = experiment: Antiviral activity against Influenza A virus H1N1 infected in dog MDCK cells assessed as decrease in apoptosis by measuring proportion of necrotic cells at 25 uM measured after 72 hrs by AnnexinV-FITC/PI staining based flow cytometry (reference value: 2.47%); assay type: functional; design: scale not given: the % may be the effect or the level left
# Influenza A virus [4] = experiment: Antiviral activity against Influenza A virus H1N1 (A/Weiss/43) infected in MDCK cells assessed as reduction of viral replication treated for 72 hrs after viral adsorption by TCID50 method; assay type: functional, organism-based
# Influenza A virus [5] = experiment: Antiviral activity against Influenza A virus H1N1 infected in human A549 cells assessed as decrease in cytokine gene expression by measuring decrease in IP-10 gene expression at 25 to 50 uM measured after 24 hrs by qRT-PCR analysis; assay type: functional, organism-based; conditions: dose 25-50 µM
# Influenza A virus [6] = experiment: Antiviral activity against Influenza A virus H1N1 infected in human A549 cells assessed as decrease in apoptosis by measuring decrease in cleaved caspase-9 protein expression at 25 to 50 uM measured after 24 hrs by western blot analysis; assay type: functional, organism-based; conditions: dose 25-50 µM
# MDCK = experiment: Cytotoxicity against dog MDCK cells assessed as cell pathological changes at 50 uM by microscopic analysis; assay type: toxicity, cell-based, Canis lupus familiaris
# Influenza A virus [7] = experiment: Antiviral activity against Influenza A virus H1N1 infected in human A549 cells assessed as decrease in apoptosis inducing factor gene expression by measuring decrease in FasL gene expression at 25 to 50 uM measured after 24 hrs by qRT-PCR analysis; assay type: functional, organism-based; conditions: dose 25-50 µM
# Influenza A virus [8] = experiment: Antiviral activity against Influenza A virus H1N1 infected in human A549 cells assessed as decrease in RIG-1 pathway related gene expression by measuring decrease in MAVS gene expression at 25 to 50 uM measured after 24 hrs by qRT-PCR analysis; assay type: functional, organism-based; conditions: dose 25-50 µM
# Influenza A virus [9] = experiment: Antiviral activity against Influenza A virus H1N1 (A/Weiss/43)-infected in BALB/c mouse assessed as reduction in lung index at 50 mg/kg/day administered intranasally for 6 days starting from 3 hrs post-viral infection; assay type: functional; conditions: 144 h, route nas, time 6 day
# Influenza A virus [10] = experiment: Antiviral activity against Influenza A virus H1N1 (A/Weiss/43) infected in MDCK cells assessed as reduction of viral replication treated for 2 hrs before viral infection and measured after 72 hrs by TCID50 method; assay type: functional, organism-based
# Influenza A virus [11] = experiment: Antiviral activity against Influenza A virus H1N1 (A/Weiss/43)-infected in BALB/c mouse assessed as reduction in IFN-beta gene expression in lungs at 25 to 100 mg/kg/day administered intranasally for 6 days starting from 3 hrs post-viral infection by qRT-PCR analysis; assay type: functional, organism-based; conditions: dose 25-100 mg/kg/day, route nas, time 6.0 day
# Influenza A virus [12] = experiment: Inhibition of Influenza A virus replication infected in dog MDCK cells assessed as downregulation of virus NP gene expression at 25 to 50 uM measured after 24 to 72 hrs post-infection by qRT-PCR analysis; assay type: functional, organism-based; conditions: dose 25-50 µM
# Influenza A virus [13] = experiment: Inhibition of Influenza A virus Neuraminidase at 100 to 300 uM pretreated with enzyme for 5 mins followed by fluorogenic substrate addition and measured for 1 hr by fluorescence based analysis; conditions: dose 100-300 µM, time 65.0 min
# Influenza A virus [14] = experiment: Antiviral activity against Influenza A virus H1N1 infected in human A549 cells assessed as decrease in incompleted autophagy by measuring increase in p62 protein expression at 25 to 50 uM measured after 24 hrs by western blot analysis; assay type: functional, organism-based; conditions: dose 25-50 µM
# Influenza A virus [15] = experiment: Antiviral activity against Influenza A virus H1N1 (A/Weiss/43)-infected in BALB/c mouse assessed as reduction in IL-6 gene expression in lungs at 25 to 100 mg/kg/day administered intranasally for 6 days starting from 3 hrs post-viral infection by qRT-PCR analysis; assay type: functional, organism-based; conditions: dose 25-100 mg/kg/day, route nas, time 6.0 day
# Influenza A virus [16] = experiment: Antiviral activity against Influenza A virus H1N1 (A/Weiss/43)-infected in BALB/c mouse assessed as reduction in OAS1 gene expression in lungs at 25 to 100 mg/kg/day administered intranasally for 6 days starting from 3 hrs post-viral infection by qRT-PCR analysis; assay type: functional, organism-based; conditions: dose 25-100 mg/kg/day, route nas, time 6.0 day
# Influenza A virus [17] = experiment: Inhibition of Influenza A virus replication infected in dog MDCK cells assessed as downregulation of virus M gene expression at 25 to 50 uM measured after 24 to 72 hrs post-infection by qRT-PCR analysis; assay type: functional, organism-based; conditions: dose 25-50 µM
# Influenza A virus [18] = experiment: Inhibition of Influenza A virus replication infected in dog MDCK cells assessed as downregulation of virus M2 protein expression by measuring decrease in green fluorescence intensity at 25 to 50 uM measured after 24 hrs by immunofluorescence analysis; assay type: functional, organism-based; conditions: dose 25-50 µM
# Influenza A virus [19] = experiment: Antiviral activity against Influenza A virus H1N1 (A/Weiss/43)-infected in dog MDCK cells assessed as reduction in oxidative stress by measuring proportion of normal cells at 50 uM treated at 2 hrs post-infection and measured after 36 hrs by DCFH-DA staining based flow cytometry (reference value: 69.4%); assay type: functional; design: scale not given: the % may be the effect or the level left
# Influenza A virus [20] = experiment: Antiviral activity against Influenza A virus H1N1 infected in human A549 cells assessed as decrease in apoptosis by measuring decrease in Bax to Bcl-2 ratio at 25 to 50 uM measured after 24 hrs by western blot analysis; assay type: functional, organism-based; conditions: dose 25-50 µM
# Influenza A virus [21] = experiment: Antiviral activity against Influenza A virus H1N1 (A/Weiss/43)-infected in BALB/c mouse assessed as reduction in lung index at 25 mg/kg/day administered intranasally for 6 days starting from 3 hrs post-viral infection; assay type: functional; conditions: 144 h, route nas, time 6 day
# Erythrocyte = experiment: Inhibition of Hemagglutinin2 in Influenza A virus assessed as inhibition of virus-induced hemolysis at 7.81 to 250 uM pretreated with virus for 30 mins followed by chicken RBC addition and measured after 30 mins; assay type: cell-based; conditions: dose 7.81-250 µM, time 60.0 min
# Influenza A virus [22] = experiment: Antiviral activity against Influenza A virus H1N1 (A/Weiss/43)-infected in BALB/c mouse assessed as reduction in lung tissue damage administered intranasally for 4 to 6 days starting from 3 hrs post-viral infection; assay type: functional, organism-based; conditions: dose 25-100 mg/kg/day, route nas, time 4-6 day
# [23] = Selectivity index, ratio of CC50 for dog MDCK cells to EC50 for antiviral activity against Influenza A virus H1N1 (A/Virginia/ATCC2/2009) infected in MDCK cells; assay type: toxicity, cell-based; conditions: read-out: Ratio CC50/EC50
# Influenza A virus [24] = experiment: Inhibition of Influenza A virus replication infected in dog MDCK cells assessed as downregulation of virus NP protein expression by measuring decrease in green fluorescence intensity at 25 to 50 uM measured after 24 hrs by immunofluorescence analysis; assay type: functional, organism-based; conditions: dose 25-50 µM
# Influenza A virus [25] = experiment: Antiviral activity against Influenza A virus H1N1 (A/Weiss/43)-infected in BALB/c mouse assessed as reduction in pulmonary inflammation at 25 to 100 mg/kg/day administered intranasally for 6 days starting from 3 hrs post-viral infection by Hematoxylin-Eosin staining based analysis; assay type: functional, organism-based; conditions: dose 25-100 mg/kg/day, route nas, time 6.0 day
# Influenza A virus [26] = experiment: Antiviral activity against Influenza A virus H1N1 infected in human A549 cells assessed as decrease in cytokine gene expression by measuring decrease in IL-6 gene expression at 25 to 50 uM measured after 24 hrs by qRT-PCR analysis; assay type: functional, organism-based; conditions: dose 25-50 µM
compound,measurement,setting,value
O=[N+]([O-])c1ccc(S(=O)(=O)N(Cc2ccccc2)c2cccc3ccccc23)cc1,Activity,Influenza A virus [1],1.21%
same,inhibition,Influenza A virus [2],Active
same,Activity,Influenza A virus [3],0.81%
same,EC50,Influenza A virus [4],2.28 µM
same,inhibition,Influenza A virus [5],Active
same,inhibition,Influenza A virus [6],Active
same,Activity,MDCK,Non-Toxic
same,inhibition,Influenza A virus [7],Active
same,inhibition,Influenza A virus [8],Active
same,inhibition in vivo at 50 mg/kg/day,Influenza A virus [9],28.8%
same,EC50,Influenza A virus [10],7.61 µM
same,Activity,Influenza A virus [11],Active
same,inhibition,Influenza A virus [12],Active
same,inhibition,Influenza A virus [13],inactive
same,inhibition,Influenza A virus [14],Active
same,Activity,Influenza A virus [15],Active
same,Activity,Influenza A virus [16],Active
same,inhibition,Influenza A virus [17],Active
same,inhibition,Influenza A virus [18],Active
same,Activity,Influenza A virus [19],95.3%
same,inhibition,Influenza A virus [20],Active
same,inhibition in vivo at 25 mg/kg/day,Influenza A virus [21],20.6%
same,inhibition,Erythrocyte,inactive
same,Activity,Influenza A virus [22],Dose-Dependent Effect
same,selectivity ratio,[23],> 240
same,inhibition,Influenza A virus [24],Active
same,Activity,Influenza A virus [25],Dose-Dependent Effect
same,inhibition,Influenza A virus [26],Active
